The values that follow come from article PMC6162330, “Insights into a dual function amide oxidase/macrocyclase from lankacidin biosynthesis” (Nature Communications, 2018).

Test [1] deals with T1, LkcE (Streptomyces rochei, UniProt G4V2H3).
T1 construct: recombinant from E. coli (pBG-102), His6-SUMO tag removed by HRV3C protease
Nature of the test: X-ray crystallography, […] Å, co-crystal. The test is classed as binding. The note with it: active site, one of the two per site, no turnover.

For test [2], the target named is T1, LkcE. Nature of the test: X-ray crystallography, […] Å; mass spectrometry of released cofactor. It is filed as binding. The settings on record: non-covalent; co-purified; selenomethionyl holo crystal.
Test [3] concerns the target LkcE wild type (amide oxidase/macrocyclase of lankacidin biosynthesis, Streptomyces rochei) (Streptomyces rochei). Nature of the test: SAXS; recombinant LkcE in solution; Rg 31.0 Å, Dmax 91 Å; compared with the homodimer's calculated mass and the LkcEWT crystal structure.

T1 sequence (G4V2H3 entry or part of it): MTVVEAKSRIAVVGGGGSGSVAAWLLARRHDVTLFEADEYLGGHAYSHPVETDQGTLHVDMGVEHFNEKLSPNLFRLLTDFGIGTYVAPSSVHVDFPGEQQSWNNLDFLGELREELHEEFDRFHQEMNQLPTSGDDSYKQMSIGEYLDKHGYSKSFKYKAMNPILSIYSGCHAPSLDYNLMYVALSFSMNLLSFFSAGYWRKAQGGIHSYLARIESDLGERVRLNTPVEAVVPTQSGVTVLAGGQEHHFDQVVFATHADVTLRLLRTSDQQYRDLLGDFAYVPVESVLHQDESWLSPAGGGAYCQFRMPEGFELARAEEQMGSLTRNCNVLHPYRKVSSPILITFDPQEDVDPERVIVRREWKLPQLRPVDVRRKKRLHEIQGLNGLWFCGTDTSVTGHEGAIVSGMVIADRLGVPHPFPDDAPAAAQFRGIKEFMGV

Consider `CCOC(=O)[C@H](C)C(C)=O` [compound 4, EMAA], for which, on LkcE [1] (position overlaps DATD), the “X-ray crystallography, 2.80 Å, co-crystal” value is “clear electron density attributable to EMAA and DATD”.

As for `Cc1cc2nc3c(=O)[nH]c(=O)nc-3n(C[C@H](O)[C@H](O)[C@H](O)COP(=O)(O)OP(=O)(O)OC[C@H]3O[C@@H](n4cnc5c(N)ncnc54)[C@H](O)[C@@H]3O)c2cc1C` [FAD], on LkcE [2], the “X-ray crystallography, 3.15 Å; mass spectrometry of released cofactor” value was “the FAD cofactor is non-covalently bound”.

Consider “LkcE wild type (amide oxidase/macrocyclase of lankacidin biosynthesis, Streptomyces rochei) (enzyme)”, for which the stoichiometry N (in general, the number of molecules, sites or subunits per partner or assembly) in test [3] is 2.

Consider `C=CCNC(=O)[C@H](O)[C@@H](O)C(=O)NCC=C` [compound 5, DATD], for which the “X-ray crystallography, 2.80 Å, co-crystal” value at LkcE [1] (position overlaps EMAA) is “clear electron density attributable to EMAA and DATD”.
